# According to PubChem BioAssay AID2060907 (Molecular Pharmacology Branch, DTP, NCI, 2025):
# System: 388556-164-R-J1-PDC complex spheroid viability
# Assay: Anticancer human tumor 388556-164-R-J1-PDC patient-derived colon adenocarcinoma cell line growth inhibition [RAS]
# Settings: for IC50: curve of first compound; for viability, T/C: stronger effect = lower value
# Procedure, shortened: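 Agents were tested in combination matrices in half-log decrements from a top concentration at or near clinical Cmax (10 microM if undetermined). Targets were multi-cell spheroids of tumour lines plus HUVEC and MSC stromal cells.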
# [1] = second compound 0.0316 µM, first compound 0.0316 µM
# [2] = second compound 0.0316 µM, first compound 0.1 µM
# [3] = second compound 0.0316 µM, first compound 0.316 µM
# [4] = second compound 0.0316 µM, first compound 1 µM
# [5] = second compound 0.1 µM, first compound 0.0316 µM
# [6] = second compound 0.1 µM, first compound 0.1 µM
# [7] = second compound 0.1 µM, first compound 0.316 µM
# [8] = second compound 0.1 µM, first compound 1 µM
# [9] = second compound 0.316 µM, first compound 0.0316 µM
# [10] = second compound 0.316 µM, first compound 0.1 µM
# [11] = second compound 0.316 µM, first compound 0.316 µM
# [12] = second compound 0.316 µM, first compound 1 µM
# [13] = second compound 1 µM, first compound 0.0316 µM
# [14] = second compound 1 µM, first compound 0.1 µM
# [15] = second compound 1 µM, first compound 0.316 µM
# [16] = second compound 1 µM, first compound 1 µM
# 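Further: spheroids exposed to compound for 7 days before readout.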
# 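Wherever viability, T/C is given: 100% = DMSO vehicle control luminescence.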
compound,measurement,setting,value
NC1c2ccccc2OC12CCN(c1cnc3c(N4CCCc5ncccc54)n[nH]c3n1)CC2 (stereo unspecified) + C=CC(=O)N1CCN(c2nc(OCC3CCCN3C)nc3c(F)c(-c4nc(N)cc(C)c4C(F)(F)F)c(Cl)cc23)C(C)C1,IC50,second compound 0.00316 µM,180 nM
same,IC50,second compound 0.01 µM,152 nM
same,IC50,second compound 0.0316 µM,165 nM
same,IC50,second compound 0.1 µM,230 nM
same,IC50,second compound 0.316 µM,190 nM
same,IC50,second compound 1 µM,240 nM
same,"viability, T/C","second compound 0.00316 µM, first compound 0.0316 µM",63.9%
same,"viability, T/C","second compound 0.00316 µM, first compound 0.1 µM",55.6%
same,"viability, T/C","second compound 0.00316 µM, first compound 0.316 µM",45.8%
same,"viability, T/C","second compound 0.00316 µM, first compound 1 µM",39.4%
same,"viability, T/C","second compound 0.00316 µM, first compound 3.16 µM",44.6%
same,"viability, T/C","second compound 0.00316 µM, first compound 10 µM",38.8%
same,"viability, T/C","second compound 0.01 µM, first compound 0.0316 µM",67.4%
same,"viability, T/C","second compound 0.01 µM, first compound 0.1 µM",55.4%
same,"viability, T/C","second compound 0.01 µM, first compound 0.316 µM",39.1%
same,"viability, T/C","second compound 0.01 µM, first compound 1 µM",39.7%
same,"viability, T/C","second compound 0.01 µM, first compound 3.16 µM",44.2%
same,"viability, T/C","second compound 0.01 µM, first compound 10 µM",38.8%
same,"viability, T/C",[1],71.1%
same,"viability, T/C",[2],54.1%
same,"viability, T/C",[3],44.1%
same,"viability, T/C",[4],38.7%
same,"viability, T/C","second compound 0.0316 µM, first compound 3.16 µM",39.8%
same,"viability, T/C","second compound 0.0316 µM, first compound 10 µM",32.9%
same,"viability, T/C",[5],70%
same,"viability, T/C",[6],59.5%
same,"viability, T/C",[7],45.7%
same,"viability, T/C",[8],40.5%
same,"viability, T/C","second compound 0.1 µM, first compound 3.16 µM",40.1%
same,"viability, T/C","second compound 0.1 µM, first compound 10 µM",35.6%
same,"viability, T/C",[9],69.2%
same,"viability, T/C",[10],54.6%
same,"viability, T/C",[11],45.3%
same,"viability, T/C",[12],41.8%
same,"viability, T/C","second compound 0.316 µM, first compound 3.16 µM",40.6%
same,"viability, T/C","second compound 0.316 µM, first compound 10 µM",35.5%
same,"viability, T/C",[13],70.3%
same,"viability, T/C",[14],58.3%
same,"viability, T/C",[15],45.9%
same,"viability, T/C",[16],40%
same,"viability, T/C","second compound 1 µM, first compound 3.16 µM",34.4%
same,"viability, T/C","second compound 1 µM, first compound 10 µM",28.1%
CCC(CC)c1cc(NC2CCC(N)C2)n2nccc2n1 (stereo unspecified) + CCn1c(-c2cc(N3CCN(C)CC3)cnc2C(C)OC)c2c3cc(ccc31)-c1csc(n1)CC(NC(=O)C1CC1C)C(=O)N1CCCC(N1)C(=O)OCC(C)(C)C2,IC50,second compound 0.000949 µM,1850 nM
same,IC50,second compound 0.003 µM,1810 nM
same,IC50,second compound 0.00949 µM,1420 nM
same,IC50,second compound 0.03 µM,1050 nM
same,IC50,second compound 0.0949 µM,< 31.6 nM
same,IC50,second compound 0.3 µM,< 31.6 nM
same,"viability, T/C","second compound 0.000949 µM, first compound 0.0316 µM",84.5%
same,"viability, T/C","second compound 0.000949 µM, first compound 0.1 µM",104%
same,"viability, T/C","second compound 0.000949 µM, first compound 0.316 µM",93.3%
same,"viability, T/C","second compound 0.000949 µM, first compound 1 µM",90.6%
same,"viability, T/C","second compound 0.000949 µM, first compound 3.16 µM",14.7%
same,"viability, T/C","second compound 0.000949 µM, first compound 10 µM",10.2%
same,"viability, T/C","second compound 0.003 µM, first compound 0.0316 µM",89.6%
same,"viability, T/C","second compound 0.003 µM, first compound 0.1 µM",85.2%
same,"viability, T/C","second compound 0.003 µM, first compound 0.316 µM",79.3%
same,"viability, T/C","second compound 0.003 µM, first compound 1 µM",81.1%
same,"viability, T/C","second compound 0.003 µM, first compound 3.16 µM",20.5%
same,"viability, T/C","second compound 0.003 µM, first compound 10 µM",9.94%
same,"viability, T/C","second compound 0.00949 µM, first compound 0.0316 µM",82.7%
same,"viability, T/C","second compound 0.00949 µM, first compound 0.1 µM",77.2%
same,"viability, T/C","second compound 0.00949 µM, first compound 0.316 µM",73.7%
same,"viability, T/C","second compound 0.00949 µM, first compound 1 µM",65.1%
same,"viability, T/C","second compound 0.00949 µM, first compound 3.16 µM",15.4%
same,"viability, T/C","second compound 0.00949 µM, first compound 10 µM",11.8%
same,"viability, T/C","second compound 0.03 µM, first compound 0.0316 µM",56.5%
same,"viability, T/C","second compound 0.03 µM, first compound 0.1 µM",66.5%
same,"viability, T/C","second compound 0.03 µM, first compound 0.316 µM",57.9%
same,"viability, T/C","second compound 0.03 µM, first compound 1 µM",51.7%
same,"viability, T/C","second compound 0.03 µM, first compound 3.16 µM",10%
same,"viability, T/C","second compound 0.03 µM, first compound 10 µM",11.5%
same,"viability, T/C","second compound 0.0949 µM, first compound 0.0316 µM",40.5%
same,"viability, T/C","second compound 0.0949 µM, first compound 0.1 µM",47%
same,"viability, T/C","second compound 0.0949 µM, first compound 0.316 µM",47%
same,"viability, T/C","second compound 0.0949 µM, first compound 1 µM",38.4%
same,"viability, T/C","second compound 0.0949 µM, first compound 3.16 µM",9.16%
same,"viability, T/C","second compound 0.0949 µM, first compound 10 µM",11.8%
same,"viability, T/C","second compound 0.3 µM, first compound 0.0316 µM",28.7%
same,"viability, T/C","second compound 0.3 µM, first compound 0.1 µM",32.5%
same,"viability, T/C","second compound 0.3 µM, first compound 0.316 µM",32.4%
same,"viability, T/C","second compound 0.3 µM, first compound 1 µM",27.8%
same,"viability, T/C","second compound 0.3 µM, first compound 3.16 µM",5.58%
same,"viability, T/C","second compound 0.3 µM, first compound 10 µM",11%
Nc1ccn(C2OC(CO)C(O)C2(F)F)c(=O)n1 (stereo unspecified) + C#Cc1c(F)ccc2cc(O)cc(-c3ncc4c(N5CC6CCC(C5)N6)nc(OCC56CCCN5CC(F)C6)nc4c3F)c12,IC50,second compound 0.0316 µM,> 1000 nM
same,IC50,second compound 0.1 µM,> 1000 nM
same,IC50,second compound 0.316 µM,> 1000 nM
same,IC50,second compound 1 µM,> 1000 nM
same,IC50,second compound 3.16 µM,> 1000 nM
same,IC50,second compound 10 µM,> 1000 nM
same,"viability, T/C","second compound 0.0316 µM, first compound 0.00316 µM",95%
same,"viability, T/C","second compound 0.0316 µM, first compound 0.01 µM",95.6%
same,"viability, T/C",[1],86%
same,"viability, T/C",[2],79.5%
same,"viability, T/C",[3],76%
same,"viability, T/C",[4],72.6%
same,"viability, T/C","second compound 0.1 µM, first compound 0.00316 µM",106%
same,"viability, T/C","second compound 0.1 µM, first compound 0.01 µM",96.6%
same,"viability, T/C",[5],80.4%
same,"viability, T/C",[6],74.9%
same,"viability, T/C",[7],74.9%
same,"viability, T/C",[8],78.5%
same,"viability, T/C","second compound 0.316 µM, first compound 0.00316 µM",98.9%
same,"viability, T/C","second compound 0.316 µM, first compound 0.01 µM",93.2%
same,"viability, T/C",[9],60.9%
same,"viability, T/C",[10],74.8%
same,"viability, T/C",[11],75.8%
same,"viability, T/C",[12],64.7%
same,"viability, T/C","second compound 1 µM, first compound 0.00316 µM",98.6%
same,"viability, T/C","second compound 1 µM, first compound 0.01 µM",82.5%
same,"viability, T/C",[13],60.1%
same,"viability, T/C",[14],76.9%
same,"viability, T/C",[15],75.5%
same,"viability, T/C",[16],54.2%
same,"viability, T/C","second compound 3.16 µM, first compound 0.00316 µM",82.6%
same,"viability, T/C","second compound 3.16 µM, first compound 0.01 µM",70.1%
same,"viability, T/C","second compound 3.16 µM, first compound 0.0316 µM",69.5%
same,"viability, T/C","second compound 3.16 µM, first compound 0.1 µM",67.1%
same,"viability, T/C","second compound 3.16 µM, first compound 0.316 µM",68%
same,"viability, T/C","second compound 3.16 µM, first compound 1 µM",54.1%
same,"viability, T/C","second compound 10 µM, first compound 0.00316 µM",76.3%
same,"viability, T/C","second compound 10 µM, first compound 0.01 µM",67.1%
same,"viability, T/C","second compound 10 µM, first compound 0.0316 µM",52.6%
same,"viability, T/C","second compound 10 µM, first compound 0.1 µM",54.9%
same,"viability, T/C","second compound 10 µM, first compound 0.316 µM",48.5%
same,"viability, T/C","second compound 10 µM, first compound 1 µM",49.1%
